Data taken from patent US20080176857A1, “4-Piperazinnylthieno[2,3-d]Pyrimidine Compounds as Platelet Aggregation Inhibitors” (priority 2005, published 2008).
Where “and” joins values, the source holds several entries; their conditions need not be identical. Equal values may be shown once.

Target: P2Y12 receptor (Homo sapiens, UniProt Q9H244)
Experiment: [33P]-2MeS-ADP binding to recombinant human P2Y12 membranes (Assay 3)
Design: expressed in transfected cells; host or cells: HEK cells
Conditions: for IC50 / Ki: HEK cell membranes expressing human P2Y12, competition with 33P 2MeS-ADP; for inhibition at 10 µM / % Inhibition: at highest concentration tested, 10 μM
Protocol: 3. Human P2Y12 Recombinant Cell Membrane Binding Assay with ^33P 2MeS-ADP.
The ability of a test compound to bind to the P2Y12 receptor was evaluated in a recombinant cell membrane binding assay. In this competitive binding assay, the test compound competed against a radiolabelled agonist for binding to the P2Y12 receptor, expressed on the cell membrane. Inhibition of binding of the labeled material was measured and correlated to the amount and potency of the test compound. Data from this assay are presented in Table F. This binding assay is a modification of the procedure in Takasaki, J. et. al, Mol. Pharmacol., 2001, Vol. 60, pg. 432.
HEK cells were transfected with the pDONR201P2Y12 vector and cultured in MEM with GlutaMAX I, Earle's salts, 25 mM HEPES (Gibco # 42360-032) containing 10% dialyzed FBS (Gibco # 26400-044), 100 μM nonessential amino acids (Gibco # 11140-050), 1 mM sodium pyruvate (Gibco # 11360-070), 0.05% geneticin (Gibco #10131-027), 3 μg/mL blasticidin (Fluka brand from Sigma # 15205), and 0.5 μg/mL puromycin (Sigma # P-8833).
Confluent cells were washed once with cold DPBS (Gibco # 14190-136). Fresh DPBS was added and the cells were scraped and centrifuged at 500×g for 5 minutes at 4° C. The cell pellets were resuspended in TEE buffer (25 mM Tris, 5 mM EDTA, 5 mM EGTA) containing 1 protease inhibitor cocktail tablet (Roche # 1 873 580) per 50 mL (called TEE+Complete) and can be flash frozen at this point.
In one embodiment, frozen cell pellets were used to prepare the membranes. In that embodiment, the frozen cell pellets were thawed on ice. In another embodiment, cell pellets may be used without flash freezing before moving on to the next step.
Cell pellets were resuspended in TEE buffer+Complete and homogenized in a glass dounce for 12 strokes. The cell suspension was centrifuged at 500×g for 5 minutes at 4° C. The supernatant was saved and centrifuged at 20,000×g for 20 minutes at 4° C. This supernatant was discarded and the cell pellet resuspended in TEE buffer+Complete and homogenized in a glass dounce for 12 strokes. This suspension was centrifuged at 20,000×g for 20 minutes at 4° C. and the supernatant discarded. The pellet was resuspended in assay buffer (50 mM Tris, 100 mM NaCl, 1 mM EDTA) containing one protease inhibitor cocktail tablet per 50 mL, and can be flash frozen as 1 mL aliquots at this point.
Dry compounds were diluted as 10 mM DMSO stocks and tested in a seven-point, three-fold dilution series run in triplicate beginning at 10 μM, final concentration. A 1 mM DMSO intermediate stock was made in a dilution plate and from this the seven dilutions were made to 5× the final concentration in assay buffer containing 0.02% BSA.
The plates were incubated at room temperature for 1 hour. The reaction was stopped using a cell harvester to transfer the reaction mixture onto GF/B UniFilter plates (Perkin Elmer # 6005177), and washed three times with wash buffer (50 mM Tris), filtering between each wash. The filter plates were dried for approximately 20 minutes in an oven at 50° C. Back seals were adhered to the filter plates and 25 uL of Microscint 20 scintillation fluid (Perkin Elmer # 6013621) were added. The filter plates were sealed, shaken for 30 minutes, and counted on a Top Count. Data were analyzed using a four-parameter curve fit with a fixed minimum and maximum experimentally defined as the average positive and negative controls on each plate, and with a hill slope equal to one.
The table below presents the IC50, Ki, and percent inhibition values for compounds tested in either washed human platelets membrane binding assay (assay #1 above) or recombinant cell membrane binding assay (Assay #3, above). Example number refers to the compound prepared as described in the example noted in the section Working Examples, above. The highest concentration of candidate compound tested is listed for each experimental run presented. […]

P2Y12 receptor, sequence (Q9H244 whole entry): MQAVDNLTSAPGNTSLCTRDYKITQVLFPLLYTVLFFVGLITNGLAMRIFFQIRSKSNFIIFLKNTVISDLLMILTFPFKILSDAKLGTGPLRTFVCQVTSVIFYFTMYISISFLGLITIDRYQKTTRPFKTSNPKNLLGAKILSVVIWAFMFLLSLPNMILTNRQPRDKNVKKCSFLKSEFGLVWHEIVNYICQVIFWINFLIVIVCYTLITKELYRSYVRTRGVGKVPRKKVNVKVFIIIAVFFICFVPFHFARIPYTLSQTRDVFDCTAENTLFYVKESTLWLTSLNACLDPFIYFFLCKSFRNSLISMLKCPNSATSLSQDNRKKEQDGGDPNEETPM

Compound	IC50	Ki	inhibition at 10 µM [%]	% Inhibition [%]
CCc1cc2c(N3CCN(C(=O)c4cccc(N(C)C)c4)CC3)nc(SCC(=O)OC)nc2s1 [Example 74, Methyl [(4-{4-[3-(dimethylamino)benzoyl]piperazin-1-yl}-6-ethylthieno[2,3-d]pyrimidin-2-yl)thio]acetate]	5.74 µM	3.69 µM	59	
CCc1cc2c(N3CCN(C(=O)Cc4ccccc4)CC3)nc(SC(C)C(C)=O)nc2s1 (centres unmarked) [Example 14, 3-({6-Ethyl-4-[4-(phenylacetyl)piperazin-1-yl]thieno[2,3-d]pyrimidin-2-yl}thio)butan-2-one]	0.29 µM and 0.33 µM	0.16 µM and 0.2 µM	89.9	83.72
CCc1cc2c(N3CCN(C(=O)Cc4ccccc4)CC3)nc(SCC(=O)NC)nc2s1 [Example 13, 2-({6-Ethyl-4-[4-(phenylacetyl)piperazin-1-yl]thieno[2,3-d]pyrimidin-2-yl}thio)-N-methylacetamide]	0.28 µM and 0.53 µM	0.16 µM and 0.31 µM	88.2	88.77
C=CCSc1nc(N2CCN(C(=O)Cc3ccccc3)CC2)c2cc(CC)sc2n1 [Example 10, 2-(Allylthio)-6-ethyl-4-[4-(phenylacetyl)piperazin-1-yl]thieno[2,3-d]pyrimidine]	0.99 µM and 0.55 µM	0.57 µM and 0.33 µM	82.3	79.53
CCCOc1ccc(C(=O)N2CCN(c3nc(SCC(=O)OC)nc4sc(CC)cc34)CC2)cc1 [Example 71, Methyl ({6-ethyl-4-[4-(4-propoxybenzoyl)piperazin-1-yl]thieno[2,3-d]pyrimidin-2-yl}thio)acetate]	0.289 µM	0.179 µM	89.3	
CCOc1cccc(C(=O)N2CCN(c3nc(SCC(=O)OC)nc4sc(CC)cc34)CC2)c1 [Example 76, Methyl ({4-[4-(3-ethoxybenzoyl)piperazin-1-yl]-6-ethylthieno[2,3-d]pyrimidin-2-yl}thio)acetate]	1.17 µM	0.73 µM	75.9	
CCc1cc2c(N3CCN(C(=O)c4ccc(C)cc4)CC3)nc(SCC(=O)OC)nc2s1 [Example 45, Methyl ({6-ethyl-4-[4-(4-methylbenzoyl)piperazin-1-yl]thieno[2,3-d]pyrimidin-2-yl}thio)acetate]	> 10 µM	> 6.7 µM	42.5	
CCc1cc2c(N3CCN(C(=O)c4ccc(C#N)cc4)CC3)nc(SCC(=O)OC)nc2s1 [Example 52, Methyl ({4-[4-(4-cyanobenzoyl)piperazin-1-yl]-6-ethylthieno[2,3-d]pyrimidin-2-yl}thio)acetate]	2.67 µM	1.78 µM	67.7	
CCc1cc2c(N3CCN(C(=O)CCCC(=O)OC)CC3)nc(SCC(=O)OC)nc2s1 [Example 41, Methyl 5-(4-{6-ethyl-2-[(2-methoxy-2-oxoethyl)thio]thieno[2,3-d]pyrimidin-4-yl}piperazin-1-yl)-5-oxopentanoate]	2.57 µM	1.72 µM	71.6	
CCc1cc2c(N3CCN(C(=O)c4c(-c5ccc(OC)cc5)noc4C)CC3)nc(SCC(=O)OC)nc2s1 [Example 68, Methyl {[6-ethyl-4-(4-{[3-(4-methoxyphenyl)-5-methylisoxazol-4-yl]carbonyl}piperazin-1-yl)thieno[2,3-d]pyrimidin-2-yl]thio}acetate]	6.42 µM	3.88 µM	96.4	
CCc1cc2c(N3CCN(C(=O)CCCCC(=O)OC)CC3)nc(SCC(=O)OC)nc2s1 [Example 43, Methyl 6-(4-{6-ethyl-2-[(2-methoxy-2-oxoethyl)thio]thieno[2,3-d]pyrimidin-4-yl}piperazin-1-yl)-6-oxohexanoate]	2.38 µM	1.58 µM	78.2	
CCc1cc2c(N3CCN(C(=O)c4ccc(-c5ccccc5)cc4)CC3)nc(SCCNC(C)=O)nc2s1 [Example 27, N-[2-({4-[4-(1,1′-Biphenyl-4-ylcarbonyl)piperazin-1-yl]-6-ethylthieno[2,3-d]pyrimidin-2-yl}thio)ethyl]acetamide]	0.1 µM	0.058 µM	96.5	
CCc1cc2c(N3CCN(C(=O)c4ccc5ccccc5c4)CC3)nc(SCC(=O)OC)nc2s1 [Example 55, Methyl ({6-ethyl-4-[4-(2-naphthoyl)piperazin-1-yl]thieno[2,3-d]pyrimidin-2-yl}thio)acetate]	1.47 µM	0.98 µM	61.2	
CCc1cc2c(N3CCN(C(=O)C4COc5ccccc5O4)CC3)nc(SCC(=O)OC)nc2s1 (centres unmarked) [Example 38, Methyl ({4-[4-(2,3-dihydro-1,4-benzodioxin-2-ylcarbonyl)piperazin-1-yl]-6-ethylthieno[2,3-d]pyrimidin-2-yl}thio)acetate]	0.6 µM	0.4 µM	77.2	
CCc1cc2c(N3CCN(C(=O)CC(C)CC(C)(C)C)CC3)nc(SCC(=O)OC)nc2s1 (centres unmarked) [Example 39, Methyl ({6-ethyl-4-[4-(3,5,5-trimethylhexanoyl)piperazin-1-yl]thieno[2,3-d]pyrimidin-2-yl}thio)acetate]	> 10 µM	> 6.7 µM	43.1	
CCc1cc2c(N3CCN(C(=O)c4cc(F)cc(F)c4)CC3)nc(SCC(=O)OC)nc2s1 [Example 51, Methyl ({4-[4-(3,5-difluorobenzoyl)piperazin-1-yl]-6-ethylthieno[2,3-d]pyrimidin-2-yl}thio)acetate]	1.58 µM	1.05 µM	74.2	
CCc1cc2c(N3CCN(C(=O)c4ccc(-c5ccccc5)cc4)CC3)nc(SCC(=O)OC)nc2s1 [Example 22, Methyl ({4-[4-(1,1′-biphenyl-4-ylcarbonyl)piperazin-1-yl]-6-ethylthieno[2,3-d]pyrimidin-2-yl}thio)acetate]	0.043 µM and 0.051 µM	0.025 µM and 0.028 µM	92.7	90.70
CCc1cc2c(N3CCN(C(=O)c4nnc(-c5ccccc5)o4)CC3)nc(SCC(=O)OC)nc2s1 [Example 70, Methyl [(6-ethyl-4-{4-[(5-phenyl-1,3,4-oxadiazol-2-yl)carbonyl]piperazin-1-yl}thieno[2,3-d]pyrimidin-2-yl)thio]acetate]	0.144 µM	0.089 µM	82.1	
CCc1cc2c(N3CCN(C(=O)c4cc(F)ccc4F)CC3)nc(SCC(=O)OC)nc2s1 [Example 53, Methyl ({4-[4-(2,5-difluorobenzoyl)piperazin-1-yl]-6-ethylthieno[2,3-d]pyrimidin-2-yl}thio)acetate]	2.33 µM	1.56 µM	68.8	
CCc1cc2c(N3CCN(C(=O)c4ccc(-c5ccccc5)cc4)CC3)nc(SC(C)C(C)=O)nc2s1 (centres unmarked) [Example 29, 3-({4-[4-(1′-Biphenyl-4-ylcarbonyl)piperazin-1-yl]-6-ethylthieno[2,3-d]pyrimidin-2-yl}thio)butan-2-one]	0.16 µM	0.091 µM	82.2	
CCc1cc2c(N3CCN(C(=O)Cc4ccccc4)CC3)nc(SCC(C)O)nc2s1 (centres unmarked) [Example 17, 1-({6-Ethyl-4-[4-(phenylacetyl)piperazin-1-yl]thieno[2,3-d]pyrimidin-2-yl}thio)propan-2-ol]	0.5 µM and 0.53 µM	0.29 µM and 0.31 µM	90.6	87.05
